The values that follow are results of earlier work, collected in PMC3433420 (PLoS ONE, 2012).

Usually Kd stands for the concentration at which binding is half-saturated.

Read-outs that look alike come from different tables or passages of the source.

Data set [1] deals with SH2 and PTB domains. The conditions noted are these: most recent PM interactions, cited from earlier work. From the text:
Supplement pone.0044471.s022.xlsx, sheet "Most recent PM interactions" | column: Kd || Supplement pone.0044471.s022.xlsx, sheet "All original PM interactions" | column: Kd

Data set [2] addresses GRB7 SH2 domain (Homo sapiens, UniProt Q14451). The arrangement: 6X His; thioredoxin; made in house; host or cells: E. coli BL21(DE3)pLysS. As to conditions: Protein GRB7, most recent PM interactions, cited from earlier work.
Where [3] appears, read: Protein BLK, ref Jones et al. 2006 / Kaushansky et al. Chem and Biol 2008.
The mark [4] stands for this setting: Protein ITK, ref Jones et al. 2006 / Kaushansky et al. Chem and Biol 2008.
Setting [5] is: Protein PIK3R1-NC, ref Jones et al. 2006 / Kaushansky et al. Chem and Biol 2008.
The mark [6] stands for this setting: Protein PIK3R2-N, ref Jones et al. 2006 / Kaushansky et al. Chem and Biol 2008.
The mark [7] stands for this setting: Protein RASA1-N, ref Jones et al. 2006 / Kaushansky et al. Chem and Biol 2008.
The mark [8] stands for this setting: Protein RASA1-NC, ref Jones et al. 2006 / Kaushansky et al. Chem and Biol 2008.
Setting [9] is: Protein SRC, ref Jones et al. 2006 / Kaushansky et al. Chem and Biol 2008.
The mark [10] stands for this setting: Protein SUPT6H, ref Jones et al. 2006 / Kaushansky et al. Chem and Biol 2008.
The mark [11] stands for this setting: Protein SYK-NC, ref Jones et al. 2006 / Kaushansky et al. Chem and Biol 2008.
Setting [12] is: Protein YES1, ref Jones et al. 2006 / Kaushansky et al. Chem and Biol 2008.
Where [13] appears, read: ref Jones et al. 2006 / Kaushansky et al. Chem and Biol 2008.
[14] abbreviates: Protein ABL2, ref Jones et al. 2006 / Kaushansky et al. Chem and Biol 2008.
[15] abbreviates: Protein FGR, ref Jones et al. 2006 / Kaushansky et al. Chem and Biol 2008.
The mark [16] stands for this setting: Protein LYN, ref Jones et al. 2006 / Kaushansky et al. Chem and Biol 2008.

Sequence of GRB7 SH2 domain (Q14451 431-527 limits assumed): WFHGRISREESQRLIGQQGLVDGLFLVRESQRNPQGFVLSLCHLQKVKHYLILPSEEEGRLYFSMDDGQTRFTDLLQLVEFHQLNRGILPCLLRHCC

MGDLVDAEEpYLVPQQGF [ErbB2 1023]: the Kd is 600 nM in data set [1] (setting [3]); 450 nM in data set [1] (setting [4]); 1640 nM in data set [1] (setting [5]); 1950 nM in data set [1] (setting [6]); 1930 nM in data set [1] (Protein PIK3R3-N, ref Jones et al. 2006 / Kaushansky et al. Chem and Biol 2008); 530 nM in data set [1] (Protein PIK3R3-NC, ref Jones et al. 2006 / Kaushansky et al. Chem and Biol 2008). Further, the Kd in data set [1] (Protein PLCG1-C, ref Jones et al. 2006 / Kaushansky et al. Chem and Biol 2008) was 1460 nM; in data set [1] (setting [7]) it was 2000 nM; in data set [1] (setting [8]), 1770 nM; in data set [1] (setting [9]), 760 nM; in data set [1] (setting [10]), 910 nM; in data set [1] (setting [11]) it was 370 nM. Also, the Kd in data set [1] (setting [12]) is 1170 nM; in data set [2] (setting [13]), 1800 nM.

As to DDTFLPVPEpYINQSVPKd [ErbB1 1092], the Kd in data set [1] (Protein ABL1, ref Jones et al. 2006 / Kaushansky et al. Mol Biosys 2008 / Kaushansky et al. Chem and Biol 2008) is 920 nM; in data set [1] (Protein ABL2, ref Jones et al. 2006 / Kaushansky et al. Mol Biosys 2008 / Kaushansky et al. Chem and Biol 2008) it was 150 nM; in data set [1] (Protein BLK, ref Jones et al. 2006 / Kaushansky et al. Mol Biosys 2008 / Kaushansky et al. Chem and Biol 2008), 300 nM; in data set [1] (Protein GRB2, ref Jones et al. 2006 / Kaushansky et al. Mol Biosys 2008 / Kaushansky et al. Chem and Biol 2008), 200 nM; in data set [1] (Protein GRB10, ref Jones et al. 2006 / Kaushansky et al. Mol Biosys 2008 / Kaushansky et al. Chem and Biol 2008), 1300 nM; in data set [1] (Protein ITK, ref Jones et al. 2006 / Kaushansky et al. Mol Biosys 2008 / Kaushansky et al. Chem and Biol 2008), 220 nM. Besides, the Kd in data set [1] (Protein NCK2, ref Jones et al. 2006 / Kaushansky et al. Mol Biosys 2008 / Kaushansky et al. Chem and Biol 2008) was 1100 nM; in data set [1] (Protein PIK3R1-N, ref Jones et al. 2006 / Kaushansky et al. Mol Biosys 2008 / Kaushansky et al. Chem and Biol 2008), 1080 nM; in data set [1] (Protein PIK3R1-NC, ref Jones et al. 2006 / Kaushansky et al. Mol Biosys 2008 / Kaushansky et al. Chem and Biol 2008), 670 nM; in data set [1] (Protein PIK3R2-N, ref Jones et al. 2006 / Kaushansky et al. Mol Biosys 2008 / Kaushansky et al. Chem and Biol 2008), 450 nM; in data set [1] (Protein PIK3R2-NC, ref Jones et al. 2006 / Kaushansky et al. Mol Biosys 2008 / Kaushansky et al. Chem and Biol 2008), 1410 nM; in data set [1] (Protein PIK3R3-N, ref Jones et al. 2006 / Kaushansky et al. Mol Biosys 2008 / Kaushansky et al. Chem and Biol 2008) it was 510 nM. In addition, the Kd in data set [1] (Protein PIK3R3-NC, ref Jones et al. 2006 / Kaushansky et al. Mol Biosys 2008 / Kaushansky et al. Chem and Biol 2008) is 1020 nM; in data set [1] (Protein PLCG2-NC, ref Jones et al. 2006 / Kaushansky et al. Mol Biosys 2008 / Kaushansky et al. Chem and Biol 2008), 1630 nM; in data set [1] (Protein RASA1-N, ref Jones et al. 2006 / Kaushansky et al. Mol Biosys 2008 / Kaushansky et al. Chem and Biol 2008), 180 nM; in data set [1] (Protein SRC, ref Jones et al. 2006 / Kaushansky et al. Mol Biosys 2008 / Kaushansky et al. Chem and Biol 2008), 1790 nM; in data set [1] (Protein SYK-C, ref Jones et al. 2006 / Kaushansky et al. Mol Biosys 2008 / Kaushansky et al. Chem and Biol 2008) it was 1920 nM; in data set [1] (Protein SYK-NC, ref Jones et al. 2006 / Kaushansky et al. Mol Biosys 2008 / Kaushansky et al. Chem and Biol 2008) it was 910 nM. Moreover, the Kd in data set [1] (Protein VAV2, ref Jones et al. 2006 / Kaushansky et al. Mol Biosys 2008 / Kaushansky et al. Chem and Biol 2008) was 540 nM; in data set [1] (Protein YES1, ref Jones et al. 2006 / Kaushansky et al. Mol Biosys 2008 / Kaushansky et al. Chem and Biol 2008), 340 nM; in data set [2] (ref Jones et al. 2006 / Kaushansky et al. Mol Biosys 2008 / Kaushansky et al. Chem and Biol 2008), 1990 nM.

Regarding TEEEDEDEEpYEYMNRRR [ErbB3 1197], the Kd was 1430 nM in data set [1] (Protein ABL1, ref Jones et al. 2006 / Kaushansky et al. Chem and Biol 2008); 1110 nM in data set [1] (setting [14]); 70 nM in data set [1] (setting [3]); 710 nM in data set [1] (setting [15]); 1070 nM in data set [1] (setting [16]); 870 nM in data set [1] (setting [9]). Moreover, the Kd is 890 nM in data set [1] (setting [11]), 130 nM in data set [1] (setting [12]) and 130 nM in data set [2] (setting [13]).

Turning to AFSPAFDNLpYYWDQDPPE [ErbB2 1221], the Kd is 500 nM in data set [1] (setting [14]); 630 nM in data set [1] (setting [3]); 1560 nM in data set [1] (Protein BLNK, ref Jones et al. 2006 / Kaushansky et al. Chem and Biol 2008); 420 nM in data set [1] (setting [15]); 120 nM in data set [1] (Protein GRB10, ref Jones et al. 2006 / Kaushansky et al. Chem and Biol 2008); 1400 nM in data set [1] (Protein GRB14, ref Jones et al. 2006 / Kaushansky et al. Chem and Biol 2008). The Kd is 780 nM in data set [1] (setting [4]); 930 nM in data set [1] (setting [16]); 1160 nM in data set [1] (setting [5]); 950 nM in data set [1] (setting [6]); 1910 nM in data set [1] (Protein PIK3R3-C, ref Jones et al. 2006 / Kaushansky et al. Chem and Biol 2008); 1930 nM in data set [1] (Protein PLCG1-N, ref Jones et al. 2006 / Kaushansky et al. Chem and Biol 2008). Also, the Kd in data set [1] (Protein PLCG1-NC, ref Jones et al. 2006 / Kaushansky et al. Chem and Biol 2008) is 1960 nM; in data set [1] (Protein PLCG2-N, ref Jones et al. 2006 / Kaushansky et al. Chem and Biol 2008) it was 170 nM; in data set [1] (setting [7]), 190 nM; in data set [1] (setting [8]), 510 nM; in data set [1] (Protein SH2D3A, ref Jones et al. 2006 / Kaushansky et al. Chem and Biol 2008), 1280 nM; in data set [1] (Protein SH2D3C, ref Jones et al. 2006 / Kaushansky et al. Chem and Biol 2008), 160 nM. For the same substance, the Kd in data set [1] (Protein SHB, ref Jones et al. 2006 / Kaushansky et al. Chem and Biol 2008) is 210 nM; in data set [1] (Protein SHC1-PTB, ref Jones et al. 2006 / Kaushansky et al. Chem and Biol 2008) it was 340 nM; in data set [1] (Protein SHC2-PTB, ref Jones et al. 2006 / Kaushansky et al. Chem and Biol 2008), 430 nM; in data set [1] (Protein SHF, ref Jones et al. 2006 / Kaushansky et al. Chem and Biol 2008), 340 nM; in data set [1] (Protein SLA2, ref Jones et al. 2006 / Kaushansky et al. Chem and Biol 2008) it was 1440 nM; in data set [1] (setting [9]), 35 nM. For the same substance, the Kd in data set [1] (setting [10]) is 1570 nM; in data set [1] (Protein SYK-C, ref Jones et al. 2006 / Kaushansky et al. Chem and Biol 2008) it was 540 nM; in data set [1] (Protein SYK-N, ref Jones et al. 2006 / Kaushansky et al. Chem and Biol 2008), 260 nM; in data set [1] (setting [11]), 300 nM; in data set [1] (Protein TEC, ref Jones et al. 2006 / Kaushansky et al. Chem and Biol 2008), 770 nM; in data set [1] (Protein TXK, ref Jones et al. 2006 / Kaushansky et al. Chem and Biol 2008) it was 1230 nM. The Kd in data set [1] (Protein VAV2, ref Jones et al. 2006 / Kaushansky et al. Chem and Biol 2008) was 1750 nM; in data set [1] (Protein VAV3, ref Jones et al. 2006 / Kaushansky et al. Chem and Biol 2008) it was 1130 nM; in data set [1] (setting [12]), 45 nM; in data set [1] (Protein ZAP70-NC, ref Jones et al. 2006 / Kaushansky et al. Chem and Biol 2008) it was 1440 nM; in data set [2] (setting [13]), 530 nM.
